This note sets out measurements from patent US12319675B2 (Artax Biopharma Inc., priority 2018, dated 2025).

The target in data set [1] is Nck SH3 domain interaction with the proline rich sequence of TCR subunit CD3ε (Homo sapiens, UniProt P16333). Description: Competitive binding, biosensor with Interferometric Optical Detection Method (IODM). The note with it: ratio of 1:1 between Nck SH3 domain and inhibitors; biotinylated CD3ε peptide on sensing surface. As to the method:
Inhibition of Nck SH3 domain interaction with the proline rich sequence of TCR subunit CD3ε was measured by optical read-out of a biosensor based on the Interferometric Optical Detection Method (IODM), using established methods (WO 2010/026269; WO 2014/020159; Laguna, M. et al., Sensors, 2015, 15(8):19819-29; and Holgado, M. et al., Sensors, 2014, 14(2): 3675-89).
Briefly, a Biophotonic Cell (BICELL) based on Fabry-Perot interferometers was used as the photonic transducer. The BICELL was fabricated using SU8 in cyclopentanone according to known methods (e.g., Laguna, M. F. et al., Sensors, 2014, 14(4): 6695-6700). Cured film was then treated with 95% sulfuric acid for 10 seconds. Streptavidin was then immobilized on the sensing surface in phosphate buffered saline (PBS; pH 7.4) over 20 min at 37° C. followed by blocking of the surface with 5% skin milk in PBS (pH 7.4). Biotinylated CD3ε peptide (SEQ ID NO: 001) in PBS (pH 7.4) was incubated with the streptavidin coated film to biofunctionalize the sensing surface (20 min at 37° C.).
Competitive binding assays were performed to determine the affinity reaction of inhibitors. The screening was carried out using a ratio of 1:1 between Nck SH3 domain and inhibitors. The optical readout of the biosensor was accomplished by a Fourier transform visible-infrared (FT-VIS-IR) spectrometer. Competitive binding results are shown in Table 3 for selected compounds of the invention. The compound numbers correspond to the compound numbers in Table 1. Compounds having a designation of “A” provide an Increased Relative Optical Power (ΔIROP) of less than or equal to thirty percent (≤30%); compounds having a designation of “B” provide a ΔIROP of between thirty and fifty percent (>30% to ≤50%); compounds having a designation of “C” provide an ΔIROP of between fifty and seventy percent (>50% to ≤70%); and compounds having a designation of “D” provide a ΔIROP of greater than seventy percent (>70%).

The nature of data set [2]: Microsomal stability assay, human. The note with it: human microsomes, read-out: Microsomal Stability (T1/2 min) Human. The data set is classed as in vitro ADME. As to the method: (§1) Microsomal stability assays were performed using mouse, rat, and human […] according to methods well-known in the art. Microsomal stability results are shown in Table 2 for selected compounds of the invention. The compound numbers correspond to the compound numbers in Table 1. […] “N/A” indicates not assayed.

Data set [3] is described as follows: Microsomal stability assay, rat. Type of data set: in vitro ADME. The conditions noted are these: rat microsomes, read-out: Microsomal Stability (T1/2 min) Rat. As to the method:
as §1

A short description of data set [4]: Microsomal stability assay, mouse. The data set is classed as in vitro ADME. The note with it: mouse microsomes, read-out: Microsomal Stability (T1/2 min) Mouse. As to the method:
as §1

The subject of data set [5] is CD3 mediated phosphorylation of ZAP70 in Jurkat cells. Description: CD3 mediated phosphorylation of ZAP70 in Jurkat cells (HTRF). The note with it: Homo sapiens, Jurkat cells stimulated with 20 μg/mL anti-CD3 antibody; for Emax: maximum inhibition, read-out: pZAP70 Inhibition - Maximum Percent Inhibition (% Inhibition); for IC50: read-out: pZAP70 Inhibition IC50. The data set is classed as cell-based. As to the method:
Inhibition of CD3 mediated phosphorylation of ZAP70 in Jurkat cells was measured by a cellular based Homogeneous Time-Resolved Fluorescence (HTRF) assay utilizing a Total ZAP-70 HTRF kit.
Briefly, Jurkat cells (˜1.3×10^6 cells/mL) were harvested on the day of experimentation. Cells were washed with PBS and resuspended in Assay Buffer (RPMI 1640 media plus 10% FBS) and counted.
Jurkat cells were seeded in Assay media at a total volume of 4 μL/well (40K cells/well) in a 384-low volume white flat bottom plate. The cells were then incubated at 37° C./5% CO2 for 30 minutes. The cells were then treated in duplicate with test compounds (3×) and reference compounds (3×) in a total volume of 4 μL, respectively. A compound dilution scheme is exemplified in FIG. 1.
The plate was then transferred to an incubator maintained at 37° C./5% CO2 for 2 minutes. Following incubation, cells were stimulated with 20 μg/mL of anti-CD3 antibody (1 mg/mL stock) and assay media was used to bring the total well volume 4 μL/well. The plate was then transferred to the incubator maintained at 37° C./5% CO2 for 2.5 minutes. Following incubation, 4 μL of lysis buffer (4×) provided in the kit was added to each well. The plate was then incubated at RT for 1 hour with gentle shaking. Following incubation, 4 μL of detection mix was added to each well and the plate was sealed with a plate sealer and left overnight at RT in the dark.
The Envision reader was set-up for Eu^3+ cryptate and fluorescence emission was read at two different wavelengths (620 nm and 665 nm). • Excitation filter: UV2(TRF) 320 nm • Emission filter: 665 nm • 2nd Emission filter: Europium 615 nm • Measurement height (mm): 6.5 • Excitation light (%): 100 • Delay (μs): 50 • Window time (μs): 400 • Time between flashes (μs): 2000 • Number of flashes: 100 • Number of flashes for 2nd detector: 100
The data is represented by the signal form the two wavelengths:
The ratio of the signal is calculated for each individual well:
The data was plotted using Graph Pad Prism. The significance between untreated vs. treated groups was assessed by One-way ANOVA and Bonferroni posttest comparing all columns in the graph.
ZAP70 IC50 results are shown in Table 6 for select compounds of the invention. The compound numbers correspond to the compound numbers in Table 1. […] “ND” indicates not determined.
ZAP70 percent maximum inhibition results are shown in Table 7 for select compounds of the invention. The compound numbers correspond to the compound numbers in Table 1.

Each structure is given as a SMILES string.

In the case of `CN(C)CCNC(=O)C1=C(c2ccc(F)cc2)c2cc(OC(F)F)ccc2OC1` [Compound I-4], the “ΔIROP (Increased Relative Optical Power)” value in data set [1] was “B (a ΔIROP of between thirty and fifty percent (>30% to ≤50%))”. Further, the half-life in data set [2] was greater than 30 min; in data set [3], 10 to 30 min; in data set [4], 10 to 30 min.
As for `CC(C)c1ccc2c(c1)C(c1ccc(F)cc1)=C(CN1CCCC1)CO2` [Compound I-15], the “ΔIROP (Increased Relative Optical Power)” value in data set [1] is “C (an ΔIROP of between fifty and seventy percent (>50% to ≤70%))”. The half-life in data set [2] was 10 to 30 min; in data set [3] it was less than 10 min; in data set [4] it was less than 10 min. For the same molecule, the Emax in data set [5] was 30 to 40%. Also, the IC50 (commonly the concentration needed to halve the response being measured) in data set [5] was less than 1 nM.
On to `CCNCC1=C(c2ccc(F)cc2)c2cc(OC(F)F)ccc2OC1` [Compound I-6], for which the “ΔIROP (Increased Relative Optical Power)” value in data set [1] was “C (an ΔIROP of between fifty and seventy percent (>50% to ≤70%))”. Further, the results for the half-life in data set [2], in data set [3] and in data set [4] were greater than 30 min, less than 10 min and greater than 30 min, respectively.
Turning to `CC(C)Oc1ccc2c(c1)C(c1ccc(F)cc1)=C(CN1CCCC1)CO2` [Compound I-14], in data set [1], the “ΔIROP (Increased Relative Optical Power)” value is “C (an ΔIROP of between fifty and seventy percent (>50% to ≤70%))”. Also, the half-life was 10 to 30 min in data set [2], less than 10 min in data set [3] and less than 10 min in data set [4]. Further, the Emax in data set [5] lay in the range of 30 to 40%. Besides, the IC50 in data set [5] is less than 1 nM.
`CN1CCN(C(=O)C2=C(c3ccc(F)cc3)c3cc(OC(F)(F)F)ccc3OC2)CC1` [Compound I-9]: in data set [1], the “ΔIROP (Increased Relative Optical Power)” value is listed as “D (a ΔIROP of greater than seventy percent (>70%))”. Besides, the half-life was 10 to 30 min in data set [2], less than 10 min in data set [3] and 10 to 30 min in data set [4].
Regarding `N#CCCOc1ccc2c(c1)C(c1ccc(F)cc1)=C(CN1CCCC1)CO2` [Compound I-32, 3-((4-(4-fluorophenyl)-3-(pyrrolidin-1-ylmethyl)-2H-chromen-6-yl)oxy)propanenitrile], the “ΔIROP (Increased Relative Optical Power)” value in data set [1] was “B (a ΔIROP of between thirty and fifty percent (>30% to ≤50%))”. Besides, the figures for the half-life in data set [2], in data set [3] and in data set [4] were 10 to 30 min, less than 10 min and 10 to 30 min, respectively.
Take `CCNC(=O)C1=C(c2ccc(F)cc2)c2cc(OC(F)F)ccc2OC1` [Compound I-2]: the “ΔIROP (Increased Relative Optical Power)” value in data set [1] is “C (an ΔIROP of between fifty and seventy percent (>50% to ≤70%))”. Besides, the half-life in data set [2] was 10 to 30 min; in data set [3], less than 10 min; in data set [4] it was less than 10 min.
Regarding `Fc1ccc(C2=C(CN3CCCC3)COc3ccc(C(F)(F)F)cc32)cc1` [Compound I-17, 1-((4-(4-fluorophenyl)-6-(trifluoromethyl)-2H-chromen-3-yl)methyl)pyrrolidine], the “ΔIROP (Increased Relative Optical Power)” value in data set [1] is “C (an ΔIROP of between fifty and seventy percent (>50% to ≤70%))”. Further, the half-life in data set [2] was greater than 30 min; in data set [3], 10 to 30 min; in data set [4], greater than 30 min.
On to `CN1CCN(C(=O)C2=C(c3ccc(F)cc3)c3cc(Cl)ccc3OC2)CC1` [Compound I-25], for which the “ΔIROP (Increased Relative Optical Power)” value in data set [1] is “B (a ΔIROP of between thirty and fifty percent (>30% to ≤50%))”. Moreover, the half-life in data set [2] is 10 to 30 min; in data set [3], less than 10 min; in data set [4], less than 10 min.
With `COc1ccc2c(c1)C(c1cccc(F)c1)=C(C(=O)N1CCN(C)CC1)CO2` [Compound I-31], the “ΔIROP (Increased Relative Optical Power)” value in data set [1] was “C (an ΔIROP of between fifty and seventy percent (>50% to ≤70%))”. Also, the half-life in data set [2] was 10 to 30 min; in data set [3] it was less than 10 min; in data set [4], less than 10 min.
On to `O=C(C1=C(c2ccc(F)cc2)c2cc(OC(F)F)ccc2OC1)N1CCCC1` [Compound I-1], for which, in data set [1], the “ΔIROP (Increased Relative Optical Power)” value was “C (an ΔIROP of between fifty and seventy percent (>50% to ≤70%))”. Further, the half-life in data set [2], in data set [3] and in data set [4] was less than 10 min each time.
On to `CN1CCN(C(=O)C2=C(c3ccc(F)cc3)c3cc(C(F)(F)F)ccc3OC2)CC1` [Compound I-26, (4-(4-fluorophenyl)-6-(trifluoromethyl)-2H-chromen-3-yl)(4-methylpiperazin-1-yl)methanone], for which, in data set [1], the “ΔIROP (Increased Relative Optical Power)” value was “C (an ΔIROP of between fifty and seventy percent (>50% to ≤70%))”. Moreover, the half-life was 10 to 30 min in data set [2], less than 10 min in data set [3] and less than 10 min in data set [4].
`Fc1ccc(C2=C(CN3CCOCC3)COc3ccc(OC(F)F)cc32)cc1` [Compound I-5]: the “ΔIROP (Increased Relative Optical Power)” value in data set [1] is “B (a ΔIROP of between thirty and fifty percent (>30% to ≤50%))”. The half-life in data set [2], in data set [3] and in data set [4] was 10 to 30 min in each case.
On to `COc1ccc2c(c1)C(c1ccc(Cl)cc1)=C(C(=O)N1CCN(C)CC1)CO2` [Compound I-28], for which, in data set [1], the “ΔIROP (Increased Relative Optical Power)” value is listed as “D (a ΔIROP of greater than seventy percent (>70%))”. In addition, the half-life in data set [2], in data set [3] and in data set [4] was less than 10 min in each case.
Regarding `CN(C)CCNC(=O)C1=C(c2ccc(F)cc2)c2cc(OC(F)(F)F)ccc2OC1` [Compound I-10, N-(2-(dimethylamino)ethyl)-4-(4-fluorophenyl)-6-(trifluoromethoxy)-2H-chromene-3-carboxamide], in data set [1], the “ΔIROP (Increased Relative Optical Power)” value is given as “A (an Increased Relative Optical Power (ΔIROP) of less than or equal to thirty percent (≤30%))”. For the same molecule, the half-life in data set [2], in data set [3] and in data set [4] was greater than 30 min in each case.
As for `CCNC(=O)C1=C(c2ccc(F)cc2)c2cc(OC(F)(F)F)ccc2OC1` [Compound I-8], in data set [1], the “ΔIROP (Increased Relative Optical Power)” value was “B (a ΔIROP of between thirty and fifty percent (>30% to ≤50%))”. The half-life was greater than 30 min in data set [2], less than 10 min in data set [3] and less than 10 min in data set [4].
In the case of `COc1ccc2c(c1)C(c1ccc(C(F)(F)F)cc1)=C(C(=O)N1CCN(C)CC1)CO2` [Compound I-29], the “ΔIROP (Increased Relative Optical Power)” value in data set [1] is “B (a ΔIROP of between thirty and fifty percent (>30% to ≤50%))”. The figures for the half-life in data set [2], in data set [3] and in data set [4] were less than 10 min, 10 to 30 min and less than 10 min, respectively.
